Laboratory results from patent US4985547A, “External skin care preparation” (Kao Corporation, priority 1987, dated 1991).

How the values were obtained:
[1] = test system: horny layer; assay: Skin conductance (water content of horny layer) after two-week coating on cheeks; assay type: in vivo, women; set-up: key: conductance meter reading; ≤5 = severe roughness, ≥20 = no roughness; conditions: Invention Product 1: vaseline and compound 3:1 by weight; two weeks; 20° C., 40% humidity; 5 and smaller = severe roughness, 20 or greater = no substantial roughness
From the text: (§1) Compounds Ia1 -Ia18 prepared respectively in Referential Examples 1, 2 and 3 and following the procedures of these referential examples, compounds Ib1 -Ib5 prepared respectively in Referential Example 4 and following the procedure of the referential example, compounds Id1 -Id5 prepared respectively in Referential Example 5 and following the procedure of the referential example, compounds Ie1 -Ie4 prepared respectively in Referential Examples 6-9, and conventional compounds Ic1 -Ic13, Ie5 -Ie14 and II1 -II12 were used separately. Mixtures (Invention Products 1), each of which had been formulated by mixing vaseline and the compound (I or II) at a weight ratio of 3:1, and vaseline (Comparative Product 1) were evaluated in skin conductance and skin roughness by the following methods.
(§2) Chosen as volunteers in winter were 10 women of 20-50 years of old who had skin roughness on their both cheeks. Different external skin care preparations were coated separately on the left and right cheeks of each volunteer for two weeks. On the following day of the completion of the two-week coating test, tests were conducted with respect to the following properties.
After washing the face with warm water of 37° C., each volunteer was allowed to rest for 20 minutes in a room which was air-conditioned at 20° C. and 40% humidity. The water content of their horny layer was measured by a skin conductance meter (manufactured by IBS Company). A smaller conductance value indicates greater skin roughness. Conductance values of 5 and smaller indicate severe skin roughness. On the contrary, no substantial skin roughness is observed where this value is 20 or greater.

[2] = test system: skin roughness; assay: Score of skin roughness, visual ranking after two-week coating on cheeks; assay type: in vivo, women; conditions: compound 1.0 wt. %, average, 0 = none, 4 = severe
From the text: as §1, §2
Skin roughness was observed visually and ranked in accordance with the following standard. Each score was indicated by an average value.
Score Ranking of skin roughness
0 No skin roughness was observed.
1 Slight skin roughness was observed.
2 Skin roughness was observed.
3 Rather severe skin roughness was observed.
4 Severe skin roughness was observed.
Using separately the compounds used in Example 1, external skin care preparations (emulsified cosmetic preparations) of their corresponding compositions shown below in Table 2 were formulated. Their effects for the improvement of skin roughness were evaluated in the same manner as in Example 1.

[3] = Invention product 2: emulsified cosmetic, glyceryl ether 2.0 wt. %
[4] = Invention product 3: emulsified cosmetic, arginine monocetylphosphate 2.0 wt. %
[5] = Invention product 4: emulsified cosmetic, polyoxyethylene (20) sorbitan stearate 1.0 and sorbitan monostearate 1.0 wt. %

Row | SMILES | Skin conductance [1] | Score of skin roughness [2, 3] | Score of skin roughness [2, 4] | Score of skin roughness [2, 5]
1 | CCCCCCCCCCCCCCCCCC(=O)N(CCOCCO)CC(O)COCCCCCCCCCC (stereo not drawn) [Compound Ib4] | 17 | 0.4 | 0.6 | 0.9
2 | CCCCCCCCCCOCC(O)CN(CC(O)COCCCCCCCCCC)C(C)=O (stereo not drawn) [Compound II10] | 9 | 0.8 | 1.1 | 1.2
3 | CCCCCCCCCCCCCCCCOCC(O)CN(C(=O)CCCCCCCCCCCCCCC)C(Cc1ccccc1)C(=O)O (stereo not drawn) [Compound Ic6] | 12 | 0.9 | 1.2 | 1.5
4 | CCCCCCCCCCCCCCCCCCOCC(O)CN(CC(O)CO)C(=O)CCCCCCCCC (stereo not drawn) [Compound Ia12] | 18 | 0.3 | 0.5 | 0.9
5 | CCCCCCCCCCCCCCCCCCOCC(O)CN(CC(C)O)C(=O)CCCCCCCCCCCCCCCCC (stereo not drawn) [Compound Ia13] | 13 | 0.5 | 0.7 | 1.1
6 | CCCCCCCCCCCCCCCCCC(=O)N(CC(=O)O)CC(O)COCCCCCCCCCCCCCC (stereo not drawn) [Compound Ic2] | 15 | 0.6 | 0.8 | 1.1
7 | CCCCCCCCCCCCCCCCOCC(O)CN(CCO[C@@H]1O[C@H](CO)[C@@H](O[C@@H]2O[C@H](CO)[C@H](O)[C@H](O)[C@H]2O)[C@H](O)[C@H]1O)C(=O)CCCCCCCCCCCCCCC (stereo partly drawn) [Compound Ie2, N-(3-hexadecyloxy-2-hydroxypropyl)-N-[2-O-(4-β-D-galactopyranosyl-β-D-glucopyranosyl)ethyl]hexadecanamide] | 29 | 0.4 | 0.5 | 0.8
8 | CCCCCCCCCCOCC(O)CN(CCO)CC(O)COCCCCCCCCCC (stereo not drawn) [Compound II2] | 8 | 0.8 | 1.0 | 1.2
9 | CCCCCCCCCCCCCCCCCCOCC(O)CN(CCOCCO)C(=O)CCCCCCCCCCCCCCCCC (stereo not drawn) [Compound Ib5] | 23 | 0.2 | 0.4 | 0.8
10 | CCCCCCCCCCCCCCCCOCC(O)CN(CCO[C@@H]1O[C@H](CO)[C@@H](O)[C@H](O)[C@H]1NC(C)=O)C(=O)CCCCCCCCCCCCCCC (stereo partly drawn) [Compound Ie3] | 31 | 0.3 | 0.4 | 0.7
11 | CCCCCCCCCCCCCCCCOCC(O)CN(CC(O)CO)C(=O)CCCCCCCCCCCCCCC (stereo not drawn) [Compound Ia10, N-(3-hexadecyloxy-2-hydroxypropyl)-N-2,3-dihydroxypropylhexadecanamide] | 22 | 0.1 | 0.3 | 0.6
12 | CCCCCCCCCCCCCCOCC(O)CN(C(=O)CCCCCCCCC)C(CO)(CO)CO (stereo not drawn) [Compound Ia17] | 20 | 0.2 | 0.4 | 0.7
13 | CCCCCCCCCCCCCCCCOCC(O)CN(CCO)CC(O)COCCCCCCCCCCCCCCCC (stereo not drawn) [Compound II1] | 18 | 0.1 | 0.3 | 0.8
14 | CCCCCCCCCCCCCCCCOCC(O)CN(C(=O)CCCCCCCCCCCCCCC)C(Cc1c[nH]c2ccccc12)C(=O)O (stereo not drawn) [Compound Ic13] | 10 | 1.1 | 1.4 | 1.7
15 | CCCCCCCCCCCCCCCCOCC(O)CN(CCCO)C(=O)CCCCCCCCCCCCCCC (stereo not drawn) [Compound Ia1, N-(3-hexadecyloxy-2-hydroxypropyl)-N-3-hydroxypropylhexadecanamide] | 20 | 0.2 | 0.4 | 0.8
16 | CCCCCCCCCCCCCCCCCCOCC(O)CN(C(=O)CCCCCCCCCCCCCCCCC)C(C)(CO)CO (stereo not drawn) [Compound Ia14] | 23 | 0.1 | 0.3 | 0.6

Row | SMILES | Skin conductance [1] | Score of skin roughness [2, 3] | Score of skin roughness [2, 4] | Score of skin roughness [2, 5]
17 | CCCCCCCCCCCCCCCCOCC(O)CN(CCCCCCO)C(=O)CCCCCCCCCCCCCCC (stereo not drawn) [Compound Ia2, N-(3-hexadecylocy-2-hydroxypropyl)-N-6-hydroxyhexylhexadecanamide] | 18 | 0.3 | 0.5 | 1.0
18 | CCCCCCCCCCCCCCCCCC(=O)N(CC(=O)O)CC(O)CCCCCCCCCCCCCCCC (stereo not drawn) [Compound Ic4] | 13 | 0.8 | 1.0 | 1.3
19 | CCCCCCCCCCCCCCCCCCOCC(O)CN(CCO)CC(O)COCCCCCCCCCCCCCCCCCC (stereo not drawn) [Compound II4] | 21 | 0.1 | 0.3 | 0.7
20 | CCCCCCCCCCOCC(O)CN(CCCO)C(=O)CCCCCCCCC (stereo not drawn) [Compound Ia3] | 10 | 0.7 | 1.0 | 1.3
21 | CCCCCCCCCCCCCCCCCCOCC(O)CN(CC(O)COCCCCCCCCCC)C(C)=O (stereo not drawn) [Compound II11] | 12 | 0.4 | 0.8 | 1.2
22 | CCCCCCCCCCCCCCCCOCC(O)CN(CCOCCO)C(=O)CCCCCCCCCCCCCCC (stereo not drawn) [Compound Ib1, N-(3-hexadecyloxy-2-hydroxypropyl)-N-2-hydroxyethoxyethylhexadecanamide] | 20 | 0.1 | 0.2 | 0.7
23 | CCCCCCCCCCCCCCCCOCC(O)CN(CCOP(=O)([O-])OCC[N+](C)(C)C)C(=O)CCCCCCCCCCCCCCC (stereo not drawn) [Compound Ie7] | – | 0.5 | 0.7 | 1.0
24 | CCCCCCCCCCCCCCCCCCOCC(O)CN(CCCO)C(=O)CCCCCCCCCCCCCCCCC (stereo not drawn) [Compound Ia6] | 23 | 0.1 | 0.3 | 0.7
25 | CCCCCCCCCCCCCCCCCC(=O)N(CCO)CC(O)CCCCCCCCCC (stereo not drawn) [Compound Id4] | 17 | 0.3 | 0.5 | 0.8
26 | CCCCCCCCCCCCCCCCOCC(O)CN(CCOP(=O)(O)OCCNCc1ccccc1)C(=O)CCCCCCCCCCCCCCC (stereo not drawn) [Compound Ie8] | 15 | 0.6 | 1.1 | 1.3
27 | CCCCCCCCCCCCCCCCOCC(O)CN(CCOC1O[C@H](CO)[C@@H](O)[C@H](O)[C@H]1O)C(=O)CCCCCCCCCCCCCCC (stereo partly drawn) [Compound Ie1, N-(3-hexadecyloxy-2-hydroxypropyl)-N-(2-O-glucopyranosyl)ethylhexadecanamide] | 25 | 0.4 | 0.6 | 0.9
28 | CCCCCCCCCCCCCCCCCCOCC(O)CN(CCCO)C(=O)CCCCCCCCC (stereo not drawn) [Compound Ia5] | 17 | 0.3 | 0.5 | 1.0
29 | CCCCCCCCCCCCCCCCCC(=O)N(CC(=O)O)CC(O)CCCCCCCCCCCCCCCC (stereo not drawn) [Compound Ic3] | 11 | 1.0 | 1.3 | 1.6
30 | CCCCCCCCCCCCCCCCOCC(CN(CCOP(=O)([O-])OCC[N+](C)(C)C)C(=O)CCCCCCCCCCCCCCC)OP(=O)([O-])OCC[N+](C)(C)C (stereo not drawn) [Compound Ie14] | 10 | 1.2 | 1.4 | 1.9
31 | CCCCCCCCCCOCC(O)CN(CCOCCO)C(=O)CCCCCCCCC (stereo not drawn) [Compound Ib2] | 10 | 0.8 | 1.0 | 1.2
